From patent publication US12275684B2, “Methods for making and using endoxifen” (Atossa Therapeutics, Inc., priority 2017, dated 2025) come the findings set out here.

Data set [1] is described as follows: Comparison of (Z)-endoxifen concentrations (oral) with published literature (Table 22). Format: in vivo.
The nature of data set [2]: Safety and tolerability of oral (Z)-Endoxifen in healthy female volunteers. Format: in vivo, human. An excerpt:
Study assessments included taking the subjects medical history, including evaluation of any on-study adverse events and concomitant medication use; height and weight; physical examination; periodic vital signs (body temperature, heart rate, respiratory rate, blood pressure); periodic 12-lead ECGs. […] Specific assessments to evaluate treatment safety included the following: the frequency and type of adverse events, clinical laboratory testing, 12-lead ECGs and vital signs. A modified FACT-ES® scoring questionnaire was used to assess symptomatology.
Safety endpoints were summarized by dose cohort, with placebos pooled across cohorts. Treatment-emergent AEs were coded using the latest version of MedDRA by System Organ Class (SOC) and Preferred Term, classified from verbatim terms. The incidence and frequency of AEs, and SAEs, were summarized by cohort according to SOC and Preferred Terms, and by severity and relationship. The duration of AEs was determined and included in listings, along with the action taken and outcome. Vital signs, ECG and safety laboratory parameters were summarized at each scheduled time point using descriptive statistics. Post-dose assessments were compared with baseline measurements. The incidence of laboratory abnormalities was summarized. Physical examination findings were presented in listings.

Where “and” joins values, the source holds several entries; their conditions need not be identical. Identical values can stand only once.

As to `CC/C(=C(\c1ccc(O)cc1)c1ccc(OCCNC)cc1)c1ccccc1` [(Z)-Endoxifen, (Z)-4-(1-(4-(2-(methylamino)ethoxy)phenyl)-2-phenylbut-1-enyl) phenol], the “% Ratio of Css Study/Literature” value in data set [1] (oral dose 1 mg) is on record as 154%; in data set [1] (oral dose 2 mg) it was 204%; in data set [1] (oral dose 4 mg), 150%. For the same molecule, the “Study Result of Average Serum (Z)-Endoxifen Css” value in data set [1] (oral dose 1 mg) was 19.1 ng/mL and 51.1 nM; in data set [1] (oral dose 2 mg), 38 ng/mL and 101.7 nM; in data set [1] (oral dose 4 mg) it was 85.1 ng/mL and 227.9 nM. In addition, in data set [2] (5 of 18 subjects), the “subjects with treatment related AEs of moderate severity” value came out at 28%. Also, the “subjects with treatment-emergent AEs deemed related to study drug” value in data set [2] (15 of 18 subjects, oral 1-4 mg) was found to be 83%. Also, the “number of treatment related AEs of moderate severity” value in data set [2] (18 subjects) came out at 6 AEs. In addition, the “number of treatment-related AEs” value in data set [2] (18 subjects, oral 1-4 mg) is reported as 41 AEs. In data set [2] (all AEs mild (75 of 84) or moderate (9 of 84), incl. placebo), the “severity of AEs” value is “no AEs classified as severe”. Besides, the “adverse events reported only in subjects who received (Z)-Endoxifen” value in data set [2] (human, in vivo) is “Upper respiratory infection, hot flush, abdominal distension, dry mouth, and menstruation delayed”. For the same molecule, the “safety by clinical laboratory tests, vital signs, ECG, FACT-ES versus placebo” value in data set [2] (human, in vivo) is “no clear differences in safety”.
